Patent US20170165294A1, “METHOD AND APPARATUS FOR ADMINISTERING GASES INCLUDING NITRIC OXIDE TO ADDRESS FIBROSIS” (priority 2015, published 2017)
Like-named read-outs stand apart in the source and are kept apart here.

Columns and labels:
[1] = tested on: mice with intratracheal administration of LPS; assay: LPS-induced lung injury in mice (intratracheal LPS); format: in vivo; settings: for lung injury: 2% H2 and/or 20 ppm NO for 3 hours starting at 5 minutes or 3 hours after LPS administration; for pulmonary inflammation / cell apoptosis: H2 and/or NO treatment; for cell apoptosis: pulmonary
myofibroblasts = settings: rat, in vivo; cited from earlier work
NF-κB = assay: LPS-induced pulmonary NF-κB activation; format: in vivo, mice; settings: H2 and/or NO treatment
polymicrobial sepsis = assay: Polymicrobial sepsis-induced lung injury; format: in vivo; settings: H2 and/or NO treatment
Text: However until applicants' discovery, there has not been a successful combination of hydrogen gas with breathing gas using the claimed apparatus and methods. Applicants have discovered that NO's effect as an antioxidant may be enhanced by eliminating highly reactive by-products of NO inhalation such as peroxynitrite, by adding H2 to inhaled NO gas.

neonatal piglets = settings: cited from earlier work; for lung collagen accumulation: short-term inhaled exposure, neonatal piglets
HIF = settings: cited from earlier work
rats = settings: inhaled; cited from earlier work
neonatal rats = settings: compared with control rats; cited from earlier work
[2] = tested on: brain ischemia-reperfusion (I/R); settings: inhaled; oxidative stress induced by focal ischemia-reperfusion; cited from earlier work
chrondrocytes = settings: cited from earlier work

| SMILES | lung injury [1] | pulmonary inflammation [1] | cell apoptosis [1] | collagen synthesis (myofibroblasts) | fibroblast number and differentiation (myofibroblasts) | LPS-induced pulmonary early and late NF-κB activation (NF-κB) | lung injury in polymicrobial sepsis (polymicrobial sepsis) | lung collagen content after recovery (neonatal piglets; after a 3-day recovery period in RA) | lung collagen accumulation (neonatal piglets) | effect on HIF (HIF; high doses and after 30 minutes) | effect on HIF (HIF; low dose, for 30 minutes, during hypoxia) | survival in high O2 exposure (rats) | survival of exposure to >95% O2 (neonatal rats) | brain injury [2] | generation of hydroxyl radicals and peroxynitrite (chrondrocytes) |
| --- | --- | --- | --- | --- | --- | --- | --- | --- | --- | --- | --- | --- | --- | --- | --- |
| [N]=O [NO, nitric oxide] | significantly improved | down-regulated | down-regulated | inhibiting | reducing | inhibited | significantly attenuated | significant decline | increases | inhibitory | stimulates | increase survival | – | – | – |
| O=O [O2, oxygen] | – | – | – | – | – | – | – | – | increases | – | – | – | – | – | – |
| COC(=O)[C@@H](N)CCCNC(=N)N[N+](=O)[O-] [Nw-nitro-1-arginine methyl ester] | – | – | – | – | – | – | – | – | – | – | – | – | significantly fewer survived | – | – |
| [HH] [H2, hydrogen] | significantly improved | down-regulated | down-regulated | – | – | inhibited | significantly attenuated | – | – | – | – | – | – | markedly suppressed | selectively reduce |
